From ChEMBL document CHEMBL4321866, “Discovery of Highly Potent and Efficient PROTAC Degraders of Androgen Receptor (AR) by Employing Weak Binding Affinity VHL E3 Ligase Ligands” (J Med Chem, 2019)
Active and inactive are the calls of the source. The calls are words filed in the database; no cut-off is given here.

What was measured:
LNCaP = test: Antiproliferative activity against AR-positive human LNCAP cells incubated for 7 days in presence of AR agonist, R1881 by WST-8 assay; type: functional, cell-based; conditions: 168 h
VCaP [1] = test: Antiproliferative activity against AR- positive human VCaP cells incubated for 7 days in presence of AR agonist, R1881 by WST-8 assay; type: functional, cell-based; conditions: 168 h
[2] = biological target: T1, von Hippel-Lindau disease tumor suppressor/Androgen receptor (Homo sapiens, UniProt P10275+P40337); test: Protac activity against VHL/AR in AR-positive human LNCAP cells assessed as reduction in PSA mRNA expression level incubated for 24 hrs by qRT-PCR analysis; type: cell-based
Target sequence in this assay (P10275 whole entry, looked up): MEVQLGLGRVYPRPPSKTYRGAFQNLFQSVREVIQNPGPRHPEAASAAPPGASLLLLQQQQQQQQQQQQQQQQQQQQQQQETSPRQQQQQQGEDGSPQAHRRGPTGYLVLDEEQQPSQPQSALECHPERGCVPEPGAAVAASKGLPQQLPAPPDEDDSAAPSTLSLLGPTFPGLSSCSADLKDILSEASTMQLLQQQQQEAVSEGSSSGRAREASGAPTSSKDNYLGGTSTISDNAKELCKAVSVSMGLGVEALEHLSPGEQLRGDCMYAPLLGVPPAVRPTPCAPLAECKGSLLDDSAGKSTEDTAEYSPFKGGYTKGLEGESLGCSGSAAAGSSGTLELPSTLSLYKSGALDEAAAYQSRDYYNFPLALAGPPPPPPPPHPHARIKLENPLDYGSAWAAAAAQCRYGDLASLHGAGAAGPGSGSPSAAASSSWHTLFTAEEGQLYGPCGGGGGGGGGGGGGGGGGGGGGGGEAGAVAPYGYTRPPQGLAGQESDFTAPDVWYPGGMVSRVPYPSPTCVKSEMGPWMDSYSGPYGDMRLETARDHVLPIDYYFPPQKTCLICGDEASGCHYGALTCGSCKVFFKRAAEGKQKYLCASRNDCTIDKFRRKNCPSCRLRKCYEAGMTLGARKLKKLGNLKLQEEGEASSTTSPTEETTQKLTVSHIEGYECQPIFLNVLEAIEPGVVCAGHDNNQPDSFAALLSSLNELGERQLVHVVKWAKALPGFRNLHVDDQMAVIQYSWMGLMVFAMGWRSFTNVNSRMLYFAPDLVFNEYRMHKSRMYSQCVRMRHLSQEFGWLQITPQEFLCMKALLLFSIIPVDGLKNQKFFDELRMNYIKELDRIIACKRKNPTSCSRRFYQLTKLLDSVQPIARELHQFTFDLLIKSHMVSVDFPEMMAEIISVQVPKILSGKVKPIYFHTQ
Target sequence in this assay (P40337 whole entry, looked up): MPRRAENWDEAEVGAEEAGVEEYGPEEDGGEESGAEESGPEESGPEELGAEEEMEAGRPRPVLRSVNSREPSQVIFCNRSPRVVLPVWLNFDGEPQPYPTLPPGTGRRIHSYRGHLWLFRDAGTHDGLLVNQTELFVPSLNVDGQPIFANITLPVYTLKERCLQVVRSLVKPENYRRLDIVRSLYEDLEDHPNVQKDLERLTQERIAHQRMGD

[3] = biological target: T1, von Hippel-Lindau disease tumor suppressor/Androgen receptor; test: Protac activity against VHL/AR in AR-positive human LNCAP cells assessed as induction of AR degradation at 0.01 uM incubated for 6 hrs by Western blot analysis relative to control; type: cell-based
Target sequence in this assay (P10275 whole entry, looked up): as the sequence (P10275 whole entry, looked up) above
Target sequence in this assay (P40337 whole entry, looked up): as the sequence (P40337 whole entry, looked up) above

[4] = biological target: T1, von Hippel-Lindau disease tumor suppressor/Androgen receptor; test: Protac activity against VHL/AR in AR-positive human LNCAP cells assessed as induction of AR degradation at 0.1 uM incubated for 6 hrs by Western blot analysis relative to control; type: cell-based
Target sequence in this assay (P10275 whole entry, looked up): as the sequence (P10275 whole entry, looked up) above
Target sequence in this assay (P40337 whole entry, looked up): as the sequence (P40337 whole entry, looked up) above

[5] = biological target: T1, von Hippel-Lindau disease tumor suppressor/Androgen receptor; test: Protac activity against VHL/AR in AR-positive human LNCAP cells assessed as induction of AR degradation at 1 uM incubated for 6 hrs by Western blot analysis relative to control; type: cell-based
Target sequence in this assay (P10275 whole entry, looked up): as the sequence (P10275 whole entry, looked up) above
Target sequence in this assay (P40337 whole entry, looked up): as the sequence (P40337 whole entry, looked up) above

[6] = biological target: T1, von Hippel-Lindau disease tumor suppressor/Androgen receptor; test: Protac activity against VHL/AR in AR-positive human LNCAP cells assessed as induction of AR degradation by measuring reduction in AR protein level at 100 nM incubated for 3 hrs by Western blot analysis; type: cell-based
Target sequence in this assay (P10275 whole entry, looked up): as the sequence (P10275 whole entry, looked up) above
Target sequence in this assay (P40337 whole entry, looked up): as the sequence (P40337 whole entry, looked up) above

[7] = biological target: T1, von Hippel-Lindau disease tumor suppressor/Androgen receptor; test: Protac activity against VHL/AR in AR-positive human VCaP cells assessed as induction of AR degradation by measuring reduction in AR protein level at 100 nM incubated for 3 hrs by Western blot analysis relative to control; type: cell-based; design: scale not given: the % may be the effect or the level left
Target sequence in this assay (P10275 whole entry, looked up): as the sequence (P10275 whole entry, looked up) above
Target sequence in this assay (P40337 whole entry, looked up): as the sequence (P40337 whole entry, looked up) above

[8] = biological target: T1, von Hippel-Lindau disease tumor suppressor/Androgen receptor; test: Protac activity against VHL/AR in AR-positive human LNCAP cells assessed as induction of AR degradation incubated for 6 hrs by Western blot analysis; type: cell-based
[9] = biological target: T1, von Hippel-Lindau disease tumor suppressor/Androgen receptor; test: Protac activity against VHL/AR in AR-positive human VCaP cells assessed as induction of AR degradation incubated for 6 hrs by Western blot analysis; type: cell-based
[10] = biological target: T1, von Hippel-Lindau disease tumor suppressor/Androgen receptor; test: Protac activity against VHL/AR in AR-positive human 22Rv1 cells assessed as induction of AR degradation incubated for 6 hrs by Western blot analysis
[11] = biological target: T1, von Hippel-Lindau disease tumor suppressor/Androgen receptor; test: Protac activity against VHL/AR in AR-positive human LNCAP cells assessed as induction of AR degradation by measuring reduction in AR protein level at 30 nM incubated for 6 hrs by Western blot analysis relative to control; type: cell-based; design: scale not given: the % may be the effect or the level left
[12] = biological target: T1, von Hippel-Lindau disease tumor suppressor/Androgen receptor; test: Protac activity against VHL/AR in AR-positive human VCaP cells assessed as induction of AR degradation by measuring reduction in AR protein level at 30 nM incubated for 6 hrs by Western blot analysis relative to control; type: cell-based; design: scale not given: the % may be the effect or the level left
[13] = biological target: T1, von Hippel-Lindau disease tumor suppressor/Androgen receptor; test: Protac activity against VHL/AR in AR-positive human 22Rv1 cells assessed as induction of AR degradation by measuring reduction in AR protein level at 10 nM incubated for 6 hrs by Western blot analysis relative to control; design: scale not given: the % may be the effect or the level left
[14] = biological target: T1, von Hippel-Lindau disease tumor suppressor/Androgen receptor; test: Protac activity against VHL/AR in AR-positive human LNCAP cells assessed as AR degradation at 100 nM preincubated with VHL ligand VHLa for 2 hrs followed by incubation with compound for 6 hrs by Western blot analysis; type: cell-based
[15] = biological target: T1, von Hippel-Lindau disease tumor suppressor/Androgen receptor; test: Protac activity against VHL/AR in AR-positive human LNCAP cells assessed as AR degradation at 100 nM preincubated with NEDD8-activating E1 enzyme inhibitor, MLN4924 for 2 hrs followed by incubation with compound for 6 hrs by Western blot analysis; type: cell-based
[16] = biological target: T1, von Hippel-Lindau disease tumor suppressor/Androgen receptor; test: Protac activity against VHL/AR in AR-positive human LNCAP cells assessed as AR degradation at 100 nM preincubated with proteasome inhibitor, MG132 for 2 hrs followed by incubation with compound for 6 hrs by Western blot analysis; type: cell-based
[17] = biological target: T1, von Hippel-Lindau disease tumor suppressor/Androgen receptor; test: Protac activity against VHL/AR in AR-positive human LNCAP cells assessed as reduction in TMPRSS2 mRNA expression level incubated for 24 hrs by qRT-PCR analysis; type: cell-based
[18] = biological target: T1, von Hippel-Lindau disease tumor suppressor/Androgen receptor; test: Protac activity against VHL/AR in AR-positive human LNCAP cells assessed as reduction in FKBP5 mRNA expression level incubated for 24 hrs by qRT-PCR analysis; type: cell-based
[19] = biological target: T1, von Hippel-Lindau disease tumor suppressor/Androgen receptor; test: Protac activity against VHL/AR in AR-positive human LNCAP cells assessed as reduction in PSA mRNA expression level at 10 nM incubated for 24 hrs by qRT-PCR analysis relative to control; type: cell-based; design: scale not given: the % may be the effect or the level left
[20] = biological target: T1, von Hippel-Lindau disease tumor suppressor/Androgen receptor; test: Protac activity against VHL/AR in AR-positive human LNCAP cells assessed as reduction in TMPRSS2 mRNA expression level at 10 nM incubated for 24 hrs by qRT-PCR analysis relative to control; type: cell-based; design: scale not given: the % may be the effect or the level left
[21] = biological target: T1, von Hippel-Lindau disease tumor suppressor/Androgen receptor; test: Protac activity against VHL/AR in AR-positive human LNCAP cells assessed as reduction in FKBP5 mRNA expression level at 10 nM incubated for 24 hrs by qRT-PCR analysis relative to control; type: cell-based; design: scale not given: the % may be the effect or the level left
[22] = biological target: T1, von Hippel-Lindau disease tumor suppressor/Androgen receptor; test: Protac activity against VHL/AR in AR-positive human LNCAP cells assessed as AR degradation at 100 nM preincubated with AR antagonist N-((1r,3r)-3-(3-Chloro-4-cyanophenoxy)-2,2,4,4-tetramethylcyclobutyl)-1-(2-hydroxyethyl)-1H-pyrazole-4-carboxamide for 2 hrs followed by incubation with compound addition for 6 hrs by Western blot analysis; type: cell-based
VCaP [23] = test: Potency index, ratio of IC50 for AR antagonist N-((1r,3r)-3-(3-Chloro-4-cyanophenoxy)-2,2,4,4-tetramethylcyclobutyl)-1-(2-hydroxyethyl)-1H-pyrazole-4-carboxamide to IC50 for test compound against AR-positive human VCaP cells incubated for 7 days in presence of AR agonist R1881 by WST-8 assay; type: functional
[24] = biological target: T1, von Hippel-Lindau disease tumor suppressor/Androgen receptor; test: Protac activity against VHL/AR in AR-positive human LNCAP cells assessed as reduction in PSA mRNA expression level incubated for 24 hrs by qRT-PCR analysis relative to N-((1r,3r)-3-(3-Chloro-4-cyanophenoxy)-2,2,4,4-tetramethylcyclobutyl)-1-(2-hydroxyethyl)-1H-pyrazole-4-carboxamide; type: cell-based
[25] = biological target: T1, von Hippel-Lindau disease tumor suppressor/Androgen receptor; test: Protac activity against VHL/AR in AR-positive human LNCAP cells assessed as reduction in TMPRSS2 mRNA expression level incubated for 24 hrs by qRT-PCR analysis relative to N-((1r,3r)-3-(3-Chloro-4-cyanophenoxy)-2,2,4,4-tetramethylcyclobutyl)-1-(2-hydroxyethyl)-1H-pyrazole-4-carboxamide; type: cell-based
[26] = biological target: T1, von Hippel-Lindau disease tumor suppressor/Androgen receptor; test: Protac activity against VHL/AR in AR-positive human LNCAP cells assessed as reduction in FKBP5 mRNA expression level incubated for 24 hrs by qRT-PCR analysis relative to N-((1r,3r)-3-(3-Chloro-4-cyanophenoxy)-2,2,4,4-tetramethylcyclobutyl)-1-(2-hydroxyethyl)-1H-pyrazole-4-carboxamide; type: cell-based
[27] = biological target: T1, von Hippel-Lindau disease tumor suppressor/Androgen receptor; test: Protac activity against VHL/AR in AR-positive human VCaP cells assessed as reduction in TMPRSS2 mRNA expression level incubated for 24 hrs by qRT-PCR analysis relative to N-((1r,3r)-3-(3-Chloro-4-cyanophenoxy)-2,2,4,4-tetramethylcyclobutyl)-1-(2-hydroxyethyl)-1H-pyrazole-4-carboxamide; type: cell-based
[28] = biological target: T1, von Hippel-Lindau disease tumor suppressor/Androgen receptor; test: Protac activity against VHL/AR in AR-positive human VCaP cells assessed as reduction in FKBP5 mRNA expression level incubated for 24 hrs by qRT-PCR analysis relative to N-((1r,3r)-3-(3-Chloro-4-cyanophenoxy)-2,2,4,4-tetramethylcyclobutyl)-1-(2-hydroxyethyl)-1H-pyrazole-4-carboxamide; type: cell-based
[29] = biological target: T1, von Hippel-Lindau disease tumor suppressor/Androgen receptor; test: Protac activity against VHL/AR in AR-positive human VCaP cells assessed as reduction in ERG mRNA expression level incubated for 24 hrs by qRT-PCR analysis relative to N-((1r,3r)-3-(3-Chloro-4-cyanophenoxy)-2,2,4,4-tetramethylcyclobutyl)-1-(2-hydroxyethyl)-1H-pyrazole-4-carboxamide; type: cell-based
[30] = Inhibition of His-TEV-tagged VHL (54 to 213 residues) (unknown origin)/Elongin B (1 to 118 residues)/Elongin C (1 to 96 residues) expressed in Escherichia coli BL21(DE3) incubated for 60 mins by FP assay; design: species or system Homo sapiens

In the case of `CC1(C)[C@H](NC(=O)c2cnn(CCO)c2)C(C)(C)[C@H]1Oc1ccc(C#N)c(Cl)c1`, the IC50 (LNCaP) is reported as 64.5 nM and the IC50 (VCaP [1]) is reported as 182 nM.

With `Cc1cc([C@H](C(=O)N2C[C@H](O)C[C@H]2C(=O)N[C@@H](CC(=O)N2CCC(C#Cc3ccc(C(=O)N[C@H]4C(C)(C)[C@H](Oc5ccc(C#N)c(Cl)c5)C4(C)C)cc3)CC2)c2ccccc2)C(C)C)on1` the Activity [2] was “Dose-dependent effect”, the Activity [3] was 90% and the Activity [4] was greater than 95%. For the same compound, the Activity [5] was greater than 99%, the Activity [6] was “Active” and the Activity [7] was greater than 90%. For the same compound, the Activity [8] was “Dose-dependent effect”, the DC50 [8] was 0.535 nM and the Activity [9] was “Dose-dependent effect”. The DC50 [9] was 0.969 nM, the Activity [10] was “Dose-dependent effect” and the DC50 [10] was 0.153 nM. It also gave an Activity [11] greater than 95%, an Activity [12] greater than 95% and an Activity [13] greater than 95%. For the same compound, the Activity [14] was “inactive”, the Activity [15] was “inactive” and the Activity [16] was “inactive”. For the same compound, the Activity [17] was “Dose-dependent effect”, the Activity [18] was “Dose-dependent effect” and the Activity [19] was greater than 50%. For the same compound, the Activity [20] was greater than 50%, the Activity [21] was greater than 50% and the IC50 (LNCaP) was 2 nM. For the same compound, the IC50 (VCaP [1]) was 6 nM, the Activity [22] was “inactive” and the “Ratio IC50” value (VCaP [23]) was 30. It also gave a fold change (FC) [24] greater than 10, a fold change (FC) [25] greater than 10 and a fold change (FC) [26] greater than 10. The fold change (FC) [27] was greater than 10, the fold change (FC) [28] was greater than 10 and the fold change (FC) [29] was greater than 10.

For `Cc1cc([C@H](C(=O)N2C[C@H](O)C[C@H]2C(=O)N[C@@H](CC(=O)N2CCC(N3CCC(C#Cc4ccc(C(=O)N[C@H]5C(C)(C)[C@H](Oc6ccc(C#N)c(Cl)c6)C5(C)C)cc4)CC3)CC2)c2ccc(-c3scnc3C)cc2)C(C)C)on1`, the Activity [3] was 76%, the Activity [4] was greater than 95% and the Activity [5] was greater than 99%. For the same compound, the Activity [6] was “Active”, the Activity [7] was greater than 90% and the DC50 [8] was 7.2 nM. It also gave a DC50 [9] of 1 nM, an IC50 (LNCaP) of 2 nM and an IC50 (VCaP [1]) of 2 nM.

`CNC(=O)c1ccc(N2C(=S)N(c3ccc(C#N)c(C(F)(F)F)c3)C(=O)C2(C)C)cc1F` [ENZALUTAMIDE] gave an IC50 (LNCaP) of 151 nM and an IC50 (VCaP [1]) of 364 nM.

`CNC(=O)C[C@H](NC(=O)[C@@H]1C[C@@H](O)CN1C(=O)[C@@H](c1cc(C)no1)C(C)C)c1ccc(F)cc1` showed an IC50 [30] of 10500 nM and a Ki [30] of 3000 nM.
